The values that follow are results of earlier work, collected in US12016850B2, “Modified release pharmaceutical formulations comprising deferiprone” (Chiesi Farmaceutici S.p.A., priority 2022, dated 2024).

What is called half-life is the time in which the quantity being followed falls by half.

The conditions of this series: background statement, species not given.

On to `Cc1c(O)c(=O)ccn1C` [Deferiprone, 3-hydroxy-1,2-dimethylpyridin-4-one], for which the half-life was 2 to 3 h.
